The values below come from patent publication US20180280370A1, “DOSAGE REGIMEN FOR A PHOSPHATIDYLINOSITOL 3-KINASE INHIBITOR” (Novartis AG, priority 2015, published 2018).

Like-named read-outs stand apart in the source and are kept apart here.

The subject of data set [1] is advanced solid malignancies carrying an alteration in the PIK3CA gene. As to conditions: cited from earlier work.
For data set [2], the system named is Rat1-myr-p110α subcutaneous xenografts. Briefly: Antitumor efficacy in Rat1-myr-p110α tumor bearing nude rats. It is filed as in vivo. As to conditions: for body weight changes, 10 A.M. vs 5 p.m. dosing / tumor volume inhibition, 10 A.M. (ALTERNATIVE SCHEDULE 1) vs 5 p.m. dosing: 14 consecutive days. How it is done: Animals and maintenance conditions: Experiments were performed in female nude Rowett rats Hsd: RH-Fox1rnu or female Brown-Norway (BN) rats (Harlan (The Netherlands). Animals were 6-9 weeks of age at time of application of the compound. Animals were housed under Optimized Hygienic Conditions in Makrolon type III cages (max. 2 animals per cage) with free access to food and water. They were allowed to adapt for at least 6 days before the experiment was started. Cell line and cell culture: Rat1-Myr-p110α cells were grown in Dulbecco's Modified Eagle Medium (DMEM) culture medium containing 4.5 g/l glucose supplemented with 10% heat-inactivated fetal calf serum (FCS), 2 mM L-glutamine, 1 mM sodium pyruvate and incubated at 37° C. in a 5% CO2 humidified atmosphere. Cells were harvested with trypsin-EDTA, re-suspended in culture medium (with additives) and counted with a Casy® system. Finally, cells were centrifuged, suspended in ice-cold Hanks' balanced salt solution (HBSS) at a concentration of 3×10^7 cells/ml. Cell culture reagents were purchased from BioConcept (Allschwil, Switzerland). Rat1-myr-p110α cells were generated by the method described in Maira et al., Molecular Cancer Therapeutics, 11:317-328 (2012), which is incorporated herein by reference in its entirety. Briefly, Rat1 cells were transfected to stably express the constitutively active form of the catalytic PI3K class I p110 isoforms a by addition of a myristylation signal to the N-terminus. Rat1-Myr-p110α tumors were established by subcutaneous injection of […] in 100 μL HBSS (Sigma #H8264) into the right flank of nude rats. For the efficacy experiments, treatments were initiated when the mean tumor volumes were approx. 900-1200 mm^3 (21 to 23 days post tumor cells injection). Compound A was prepared for dosing as homogenous suspensions in 1% carboxymethyl cellulose: 0.5% Tween® 80: 98.5% deionized water. Fresh suspensions were prepared once every 7 days and stored at 4° C. Compound A or vehicle was administered orally at a volume of 10 mL/kg. Tumor volumes were measured with calipers and determined according to the formula: length×diameter^2×π/6. In addition to presenting changes of tumor volumes over the course of treatments, antitumor activity is expressed as T/C % (mean change of tumor volume of treated animals/mean change of tumor volume of control animals)×100. Regressions (%) were calculated according to the formula ((mean tumor volume at end of treatment−mean tumor volume at start of treatment)/mean tumor volume at start of treatment)×100. Body weights and tumor volumes were recorded two to three times a week. Absolute values for primary tumor growth and body weight were used to make the statistical comparisons between groups (one way ANOVA followed by Dunnett's test for normally distributed data; ANOVA on Ranks for not normally distributed data followed by Dunnett's test for equal group size or Dunn's for unequal group size). Absolute values for blood glucose (calculated mean over 6 hours' time periods) and PK data were used to make the statistical comparisons between groups (two-tailed Student's t-tests). The significant level was set at p<0.05. All statistical calculations were carried out using SigmaStat.

Data set [3] can be described thus: Continuous blood glucose measurement via radio-telemetry in conscious freely moving rats. Format: in vivo, Brown Norway rats. As to conditions: for normalization of blood glucose in between 2 doses: steady state. How it is done: Animals and maintenance conditions: Experiments were performed in female nude Rowett rats Hsd: RH-Fox1rnu or female Brown-Norway (BN) rats (Harlan (The Netherlands). Animals were 6-9 weeks of age at time of application of the compound. Animals were housed under Optimized Hygienic Conditions in Makrolon type III cages (max. 2 animals per cage) with free access to food and water. They were allowed to adapt for at least 6 days before the experiment was started.
Compound A was prepared for dosing as homogenous suspensions in 1% carboxymethyl cellulose: 0.5% Tween® 80: 98.5% deionized water. Fresh suspensions were prepared once every 7 days and stored at 4° C. Compound A or vehicle was administered orally at a volume of 10 mL/kg.
Blood Glucose Measurements Via Radio-Telemetry Technology (HD-XG Radio Telemetry Transmitter; Data Sciences International):
Blood glucose levels were measured continuously in conscious non-restrained freely moving rats by the method described in Brockway et al., Journal of Diabetes Science and Technology., 9(4):771-81 (2015), which is incorporated herein by reference in its entirety. Briefly, the 1.4 cc telemetry device provides direct continuous blood glucose readings along with temperature and activity for 4 weeks or longer. The device was used in non-tumor bearing Brown Norway (BN) rats. Each animal was surgically instrumented with glucose sensors in the abdominal aorta and the device placed in the intraperitoneal cavity. Continuous glucose readings were recorded with the Dataquest A.R.T. data acquisition system. Reference glucose values were measured from tail vein blood samples using the Nova StatStrip glucometer twice per week. Each animal was measured in cyclic runs of 1 minute for 10 seconds with a sampling rate of 1 Hz. Mean values for blood glucose levels, body temperature and motor activity were then computed and stored. Fifteen minutes or hourly averages were determined using the interval averaging routine on the Dataquest Analysis Software (Dataquest A.R.T, version 4.36; Data Sciences). Blood glucose values are expressed in mmol/L, body temperature in degree Celsius (° C.) and motor activity in number of movements (units) per minute.
(§1) Absolute values for primary tumor growth and body weight were used to make the statistical comparisons between groups (one way ANOVA followed by Dunnett's test for normally distributed data; ANOVA on Ranks for not normally distributed data followed by Dunnett's test for equal group size or Dunn's for unequal group size). Absolute values for blood glucose (calculated mean over 6 hours' time periods) and PK data were used to make the statistical comparisons between groups (two-tailed Student's t-tests). The significant level was set at p<0.05. All statistical calculations were carried out using SigmaStat.

The nature of data set [4]: Plasma PK after oral administration in freely moving catheterized rats with automated blood sampling. Format: in vivo, Brown Norway rats. As to conditions: day 1 or 4 (steady state), 50 mg/kg p.o. qd; 2, 4, 6, 8, 10, 12, 18 and 24h post treatment.
Excerpt: Determination of Pharmacokinetic (PK) Parameters after Oral Administration of Compound A in Freely Moving Catheterized Rats Using Automated Blood Sampling (ABS) Technology:
The highly automated ABS system (Instech ABS2™) allows for unattended blood sample collection via an in-dwelling venous catheter placed in the jugular or femoral vein. For all animals, cannulas were filled with 1:1 heparin glycerol solution when not on study. The ABS freely-moving system is a well-recognized method to reduce stress during blood sampling and it only marginally impedes the animal in its freedom to move, drink, eat and sleep. Furthermore, this method allows obtaining pharmacokinetic parameters at night time (active phase of the animal).
as §1

Another data set deals with advanced solid tumors. As to conditions: cited from earlier work.
Setting [5] is: daily administration, human patients.

As for `Cc1nc(NC(=O)N2CCC[C@H]2C(N)=O)sc1-c1ccnc(C(C)(C)C(F)(F)F)c1` [Compound A, (S)-Pyrrolidine-1,2-dicarboxylic acid 2-amide 1-({4-methyl-5-[2-(2,2,2-trifluoro-1,1-dimethyl-ethyl)-pyridin-4-yl]-thiazol-2-yl}-amide)], the “Disease control rate (complete response, partial response or stable disease)” value in data set [1] (150 mg/BID, 95% CI: 38.4-88.2) is listed as 66.7%; in data set [1] (400 mg/QD, 95% CI: 40.1-66.0) it was 53.2%. Also, the confirmed partial responses in data set [1] (150 mg/BID) is reported as 2 patients; in data set [1] (270 mg/QD) it was 2 patients; in data set [1] (350 mg/QD), 1 patients; in data set [1] (400 mg/QD), 2 patients; in data set [1] (all doses, of 132 evaluable patients), 7 patients. The MTD in data set [1] (QD, in patients) is 400 mg. Also, the “patients with induced hyperglycemia” value in data set [1] (setting [5]) is listed as 49%. Further, the “partial responses to treatment” value in data set [1] (of 132 evaluable patients, as of Mar. 10, 2014, oral 30-450 mg q.d. or 120-200 mg b.i.d.) is on record as 15 patients. Moreover, in data set [2] (14 mg/kg p.o. qd, 2 weeks of treatment), the anti-tumor efficacy entry was “stasis”. For the same compound, the “body weight changes, 10 A.M. vs 5 p.m. dosing” value in data set [2] (14 mg/kg p.o. qd) and in data set [2] (25 mg/kg p.o. qd) was “very similar pattern” each time. In addition, the “tumor volume inhibition, 10 A.M. (ALTERNATIVE SCHEDULE 1) vs 5 p.m. dosing” value in data set [2] (14 mg/kg p.o. qd) and in data set [2] (25 mg/kg p.o. qd) was “No significant differences” each time. Moreover, the tumor regression in data set [2] (25 mg/kg p.o. qd, 2 weeks of treatment) was 50%. Moreover, the “normalization of blood glucose in between 2 doses” value in data set [3] (50 mg/kg p.o. qd, dosing before the active phase (5 p.m.)) is reported as “could not be achieved”; in data set [3] (50 mg/kg p.o. qd, dosing before the inactive phase (10 a.m.)), “allowed blood glucose to normalize in between 2 doses”. Besides, in data set [3] (50 mg/kg p.o. qd, steady state (Day 4), n=6), the “change in glucose level” value was “transient glucose level increase”. Also, the “effect on blood glucose levels” value in data set [3] (day 1 of treatment, 50 mg/kg p.o. qd dosed at 5 PM (active phase)) was “slight hyperglycemia”; in data set [3] (day 1 of treatment, 50 mg/kg p.o. qd dosed at 10 AM (inactive phase)), “slight hyperglycemia”; in data set [3] (steady state (Day 4-5 of daily treatment), 50 mg/kg p.o. qd) it was “transient hyperglycemia profile”. Besides, the “period of remaining transient hyperglycemia after treatment discontinuation” value in data set [3] (recovery day 1, group dosed before the active phase (5 p.m.), 50 mg/kg p.o. qd) was “up to 12 h”. Further, the “blood glucose after treatment discontinuation” value in data set [3] (start of recovery day 1, group dosed before the inactive phase (10 a.m.), 50 mg/kg p.o. qd) is listed as “already normalized to baseline levels”. For the same compound, the “plasma PK profile, 10 AM vs 5 PM dosing” value in data set [4] is on record as “did not revealed any significant differences”.
In the case of `Nc1cc(C(F)(F)F)c(-c2cc(N3CCOCC3)nc(N3CCOCC3)n2)cn1` [Compound B, 4-(trifluoromethyl)-5-(2,6-dimorpholinopyrimidin-4-yl)pyridin-2-amine], in the data set on advanced solid tumors (setting [5]), the “patients with induced hyperglycemia” value is on record as 31%. Moreover, the unconfirmed partial responses result in the data set with advanced solid tumors (parotid gland carcinoma, epithelioid hemangiothelioma, ER+ breast cancer) is reported as “three”. In the data set with advanced solid tumors (triple-negative breast cancer, 83 patients enrolled), the confirmed partial response entry is reported as “One”.
